Among the test systems are NCI-H226 lung; HOP-92 NSCLC; HT29 colon; NCI-H23 lung; TK-10 renal; NCI-H522 lung; SW-620 colon; SK-MEL-28 melanoma; A498 renal; DU-145 prostate.
Assay in all cases: growth of human tumour cells (NCI), 48 h

The structures appear in SMILES notation.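 Cultured in 96-well plates, cells were exposed to test compound for 48 hours across five concentrations. GI50 marks 50% less growth. TGI is the concentration that stops growth completely.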

The values below come from PubChem BioAssay (NCI).

As for `Cc1cn2c(/C=N/N=C(N)N)c(-c3cccnc3)nc2s1`, the GI50 was 10.1 µM with NCI-H226 lung; 16.8 µM with HOP-92 NSCLC; 4.18 µM in the experiment on HT29 colon; 11.9 µM in the experiment with NCI-H23 lung; 6.85 µM in the experiment on TK-10 renal; 12.1 µM in the experiment with NCI-H522 lung. For the same molecule, the GI50 with SW-620 colon is 11.5 µM; in the experiment with SK-MEL-28 melanoma, 12.4 µM. For the same molecule, the TGI with NCI-H226 lung turned out to be 29.4 µM; in the experiment on HOP-92 NSCLC, 33.4 µM; in the experiment with HT29 colon, 16.1 µM; with NCI-H23 lung it was 25.2 µM; in the experiment with TK-10 renal it was 21.3 µM; in the experiment with NCI-H522 lung it was 39.6 µM. The TGI in the experiment with SW-620 colon turned out to be 35.2 µM; in the experiment with SK-MEL-28 melanoma, 26.3 µM.

`O=C(NC1C2CC3CC(C2)CC1C3)c1cc(/C=C/c2ccccc2)[nH]c(=S)n1` (configuration not stated): the TGI with A498 renal, with NCI-H23 lung, with TK-10 renal, in the experiment on NCI-H522 lung, in the experiment on SW-620 colon and with SK-MEL-28 melanoma was more than 100 µM in each case.

Consider `COc1ccc2oc(C(=O)O)c3c2c1CCC3`, for which the TGI in the experiment on HOP-92 NSCLC, in the experiment with HT29 colon, in the experiment with A498 renal, in the experiment on NCI-H23 lung, in the experiment with TK-10 renal and with SW-620 colon was more than 100 µM throughout. Besides, in the experiment with SK-MEL-28 melanoma, the TGI was more than 100 µM.

On to `O=S(O)CCCSSc1ccccc1`, for which the TGI is more than 100 µM in the experiment on HT29 colon; more than 100 µM with A498 renal; more than 100 µM in the experiment with NCI-H23 lung; more than 100 µM in the experiment with TK-10 renal; 42.4 µM in the experiment on NCI-H522 lung; more than 100 µM in the experiment on SW-620 colon. In the experiment with SK-MEL-28 melanoma, this molecule came in with a TGI of more than 100 µM.

Regarding `CC1=C[P+](Cc2ccccc2)(c2ccccc2)CC1` (configuration not stated), the TGI with NCI-H226 lung, with HT29 colon, with A498 renal, with NCI-H23 lung, with TK-10 renal and in the experiment with NCI-H522 lung was more than 100 µM in each case. Moreover, the TGI in the experiment with SW-620 colon and with SK-MEL-28 melanoma was more than 100 µM throughout.

As to `O=C1CC(O)(c2ccccc2)C(c2ccccc2)=C1c1ccccc1` (configuration not stated), the TGI with HOP-92 NSCLC was 61.3 µM; in the experiment on HT29 colon, more than 100 µM; in the experiment with NCI-H23 lung, more than 100 µM; in the experiment on TK-10 renal, more than 100 µM; in the experiment on NCI-H522 lung, 54.1 µM; in the experiment with SW-620 colon, more than 100 µM. Also, the TGI in the experiment with SK-MEL-28 melanoma is more than 100 µM.

Take `CCOc1ccccc1NC(=O)CCc1n[nH]c(=S)o1`: the TGI in the experiment with NCI-H226 lung, in the experiment on HOP-92 NSCLC, in the experiment with HT29 colon, in the experiment on NCI-H23 lung, in the experiment on TK-10 renal and in the experiment with NCI-H522 lung was more than 100 µM each time. In addition, the TGI with SW-620 colon and in the experiment on SK-MEL-28 melanoma was more than 100 µM in each case.

On to `COc1cccc2c1c(C1=C(c3cn(C)c4ccccc34)C(=O)NC1=O)cn2C`, for which the GI50 in the experiment with NCI-H226 lung, with DU-145 prostate, in the experiment with HT29 colon, in the experiment with A498 renal, in the experiment on NCI-H23 lung and with TK-10 renal was more than 25 µM each time. Further, the GI50 with NCI-H522 lung, in the experiment with SW-620 colon and in the experiment on SK-MEL-28 melanoma was more than 25 µM in each case. The TGI with NCI-H226 lung, with DU-145 prostate, in the experiment on HT29 colon, with A498 renal, in the experiment on NCI-H23 lung and in the experiment with TK-10 renal was more than 25 µM in each case. Further, the TGI in the experiment with NCI-H522 lung, in the experiment with SW-620 colon and in the experiment with SK-MEL-28 melanoma was more than 25 µM each time.

Regarding `O=C1c2ccccc2C(=O)N1C/C=C/CO`, the TGI in the experiment with NCI-H226 lung, in the experiment with A498 renal, in the experiment with TK-10 renal, in the experiment with NCI-H522 lung, in the experiment with SW-620 colon and in the experiment with SK-MEL-28 melanoma was more than 100 µM throughout.

Regarding `CCC[CH2][Sn]1([CH2]CCC)[O]C(=O)c2ccc(C)cc2[O]1`, the GI50 in the experiment with NCI-H226 lung was 1.5 µM; with HOP-92 NSCLC, 0.326 µM; with HT29 colon, 1.34 µM; with A498 renal, 0.367 µM; with NCI-H23 lung, 0.472 µM; in the experiment with TK-10 renal, 0.297 µM. Also, the values for the GI50 in the experiment on NCI-H522 lung, in the experiment on SW-620 colon and in the experiment with SK-MEL-28 melanoma were 0.113 µM, 0.174 µM and 0.412 µM, respectively. The TGI with NCI-H226 lung amounted to 2.93 µM; in the experiment with HOP-92 NSCLC, 1.24 µM; in the experiment on HT29 colon it was 2.97 µM; with A498 renal, 1.06 µM; in the experiment with NCI-H23 lung it was 1.76 µM; with TK-10 renal it was 0.766 µM. The TGI in the experiment with NCI-H522 lung is 0.239 µM; in the experiment on SW-620 colon, 0.4 µM; in the experiment on SK-MEL-28 melanoma it was 1.45 µM.

In the case of `COc1cc2c(cc1OC)C(=O)Cc1ccc(OC)c(OC)c1CN(C)CC2`, the TGI in the experiment on NCI-H226 lung is more than 100 µM; in the experiment on HOP-92 NSCLC it was 98.5 µM; in the experiment with HT29 colon, more than 100 µM; in the experiment on A498 renal it was 48.4 µM; in the experiment with NCI-H23 lung, more than 100 µM; with TK-10 renal, more than 100 µM. Further, the TGI in the experiment on NCI-H522 lung, in the experiment on SW-620 colon and in the experiment with SK-MEL-28 melanoma was more than 100 µM throughout.

As to `Clc1cc2n[se]nc2cc1Cl`, the TGI with HT29 colon, with A498 renal, in the experiment with NCI-H23 lung, with TK-10 renal, in the experiment with SW-620 colon and in the experiment on SK-MEL-28 melanoma was more than 100 µM in each case.

For the molecule `CC[C@@H]1C[C@H]2CC3c4[nH]c5ccc(O)cc5c4CCN(C2)C31`, the TGI with NCI-H226 lung, in the experiment with HOP-92 NSCLC, with HT29 colon, in the experiment with NCI-H23 lung, in the experiment on TK-10 renal and in the experiment with SW-620 colon was more than 100 µM throughout. Also, the TGI with SK-MEL-28 melanoma is more than 100 µM.

For `Fc1cccc2c1cc1ccc3cccc4ccc2c1c34`, the TGI in the experiment on NCI-H226 lung, with HOP-92 NSCLC, in the experiment with HT29 colon, in the experiment with A498 renal, with NCI-H23 lung and in the experiment on TK-10 renal was more than 100 µM throughout. Besides, the TGI with NCI-H522 lung, in the experiment on SW-620 colon and in the experiment on SK-MEL-28 melanoma was more than 100 µM each time.
